From patent US9512459B2 (priority 2011, dated 2016)

Experiments:
[1] = target: Sclerotinia sclerotiorum glucose dehydrogenase (FAD-GDH) Ssc-n1 variant N191E, SEQ ID NO: 1 (Sclerotinia sclerotiorum, UniProt A7F9L2, N191E); details: 60 ml culture, crude enzyme; glucose 1-40 mM, pH 6.5, DCIP/PMS
Protocol: (§1) The transformant BL21 (DE3) expressing each mutated enzyme was precultured. The transformant was inoculated in an amount of 1% with respect to 60 ml of a medium A using a 300-ml baffled flask and shake-cultured under conditions involving 20° C., 28 hours, and 125 rpm. After collection of 50 ml of the medium, the bacterial cells were suspended by the addition of BugBuster (registered trademark) protein extraction reagent (Novagen/Merck KGaA) at a ratio of 5 ml per g of wet cells and incubated at room temperature for 15 minutes with gentle shaking. Insoluble fractions were removed by centrifugation (15 Krpm, 4° C., 20 minutes). Then, the obtained supernatant was dialyzed overnight at 4° C. against a 20 mM potassium phosphate buffer solution (pH 6.5). After the completion of the dialysis, the dialysate was centrifuged, and the supernatant was used as a crude enzyme preparation. Insoluble fractions were suspended in a 20 mM potassium phosphate buffer solution (pH 6.5) at a ratio of 1 ml per 2 ml of the suspension containing the insoluble fractions.
(§2) The GDH activity was measured in a DCIP (0.3 mM)/PMS (0.6 mM) system using a 20 mM potassium phosphate buffer solution (pH 6.5) as a buffer solution and glucose (Glc; 1, 2, 4, 10, 20, and 40 mM) and xylose (Xyl; 4 and 40 mM) as substrates.
(§3) The numeric values in the tables represent a mean of several data about specific activity (U/mg) and productivity (U/L) obtained under the same conditions with 40 mM glucose as a substrate. The obtained crude enzyme preparation was used to observe the correlation between the concentration of the substrate (glucose; 1, 2, 4, 10, 20, and 40 mM) and the activity. The obtained Michaelis-Menten constant (Km value) and apparent maximum activity (Vmax) were determined from a saturation curve determined therefrom.

[2] = target: Sclerotinia sclerotiorum glucose dehydrogenase (FAD-GDH) Ssc-n1 variant N191K, SEQ ID NO: 1 (Sclerotinia sclerotiorum, UniProt A7F9L2, N191K); details: 60 ml culture, crude enzyme; glucose 1-40 mM, pH 6.5, DCIP/PMS
Protocol: as §1, §2, §3

[3] = target: Sclerotinia sclerotiorum glucose dehydrogenase (FAD-GDH) Ssc-n1 variant N191K/S529G, SEQ ID NO: 1 (Sclerotinia sclerotiorum, UniProt A7F9L2, N191K/S529G); details: 60 ml culture, crude enzyme; glucose 1-40 mM, pH 6.5, DCIP/PMS
Protocol: as §1, §2, §3

[4] = target: Sclerotinia sclerotiorum glucose dehydrogenase (FAD-GDH) Ssc-n1 variant N191R, SEQ ID NO: 1 (Sclerotinia sclerotiorum, UniProt A7F9L2, N191R); details: 60 ml culture, crude enzyme; glucose 1-40 mM, pH 6.5, DCIP/PMS
Protocol: as §1, §2, §3

[5] = target: Sclerotinia sclerotiorum glucose dehydrogenase (FAD-GDH) Ssc-n1 variant N191S, SEQ ID NO: 1 (Sclerotinia sclerotiorum, UniProt A7F9L2, N191S); details: 60 ml culture, crude enzyme; glucose 1-40 mM, pH 6.5, DCIP/PMS
Protocol: as §1, §2, §3

[6] = target: Sclerotinia sclerotiorum glucose dehydrogenase (FAD-GDH) Ssc-n1 variant S529G, SEQ ID NO: 1 (Sclerotinia sclerotiorum, UniProt A7F9L2, S529G); details: 60 ml culture, crude enzyme; glucose 1-40 mM, pH 6.5, DCIP/PMS
Protocol: as §1, §2, §3

[7] = target: Sclerotinia sclerotiorum glucose dehydrogenase (FAD-GDH) Ssc-n2 variant N191R/S529G, SEQ ID NO: 1 (Sclerotinia sclerotiorum, UniProt A7F9L2, N191R/S529G); details: 60 ml culture, crude enzyme; glucose 1-40 mM, pH 6.5, DCIP/PMS
Protocol: as §1, §2, §3

[8] = target: Sclerotinia sclerotiorum glucose dehydrogenase (FAD-GDH) Ssc-n2 variant N191S/S529G, SEQ ID NO: 1 (Sclerotinia sclerotiorum, UniProt A7F9L2, N191S/S529G); details: 60 ml culture, crude enzyme; glucose 1-40 mM, pH 6.5, DCIP/PMS
Protocol: as §1, §2, §3

[9] = target: Sclerotinia sclerotiorum glucose dehydrogenase (FAD-GDH) Ssc-n3 variant N191K/S529G, SEQ ID NO: 1 (Sclerotinia sclerotiorum, UniProt A7F9L2, N191K/S529G); details: 60 ml culture, crude enzyme; glucose 1-40 mM, pH 6.5, DCIP/PMS
Protocol: as §1, §2, §3

[10] = target: Sclerotinia sclerotiorum glucose dehydrogenase (FAD-GDH) Ssc-n4 variant N191K/S529G, SEQ ID NO: 1 (Sclerotinia sclerotiorum, UniProt A7F9L2, N191K/S529G); details: 60 ml culture, crude enzyme; glucose 1-40 mM, pH 6.5, DCIP/PMS
Protocol: as §1, §2, §3

[11] = target: T1, Aspergillus niger glucose dehydrogenase (FAD-GDH) Ang-n2, SEQ ID NO: 2 (26 N-terminal residues deleted, Met-Thr-Asp-Ser-Thr-Leu-Asn added) (Aspergillus niger, UniProt A2QWL1); assay: GDH activity vs glucose, saturation curve (Ang-n2); assay type: biochemical; details: crude enzyme, glucose 1-40 mM, pH 6.5, DCIP/PMS
T1 construct: pET30c, E. coli BL21(DE3), crude extract or purified (T9)
T1 sequence (A2QWL1 27-588): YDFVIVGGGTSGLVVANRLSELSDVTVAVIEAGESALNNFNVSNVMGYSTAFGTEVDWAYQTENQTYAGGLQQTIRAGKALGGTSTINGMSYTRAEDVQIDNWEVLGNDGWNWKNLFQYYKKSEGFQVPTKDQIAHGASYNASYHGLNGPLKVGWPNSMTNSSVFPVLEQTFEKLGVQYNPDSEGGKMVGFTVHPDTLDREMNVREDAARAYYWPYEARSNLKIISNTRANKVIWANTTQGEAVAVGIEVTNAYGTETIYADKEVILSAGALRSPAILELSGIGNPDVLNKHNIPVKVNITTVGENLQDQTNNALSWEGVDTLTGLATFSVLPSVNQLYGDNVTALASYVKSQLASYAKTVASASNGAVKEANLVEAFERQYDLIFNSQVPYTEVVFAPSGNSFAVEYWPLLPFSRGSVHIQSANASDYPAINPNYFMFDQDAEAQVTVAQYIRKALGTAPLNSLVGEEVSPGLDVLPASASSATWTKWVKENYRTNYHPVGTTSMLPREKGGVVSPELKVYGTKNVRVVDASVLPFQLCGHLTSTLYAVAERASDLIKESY
Protocol: as §1, with “After the completion of the dialysis, the dialysate was centrifuged, and the supernatant was used as a crude enzyme preparation. Insoluble fractions were suspended in a 20 mM potassium phosphate buffer solution (pH 6.5) at a ratio of 1 ml per 2 ml of the suspension containing the insoluble fractions.” left out
as §2
as §3, with “The obtained crude enzyme preparation was used to observe the correlation between the concentration of the substrate (glucose; 1, 2, 4, 10, 20, and 40 mM) and the activity.” left out

OC[C@H]1OC(O)[C@H](O)[C@@H](O)[C@@H]1O (stereo partly drawn) [glucose]
Vmax [1]: 5.6 U/mg protein
Vmax [2]: 1.6 U/mg protein
Vmax [3]: 7.2 U/mg protein
Vmax [4]: 5.6 U/mg protein
Vmax [5]: 3.7 U/mg protein
Vmax [6]: 3.6 U/mg protein
Vmax [7]: 15.7 U/mg protein
Vmax [8]: 19.4 U/mg protein
Vmax [9]: 6.9 U/mg protein
Vmax [10]: 9.2 U/mg protein
Vmax ([11]; 3 ml culture (Table 8)): 1.5 U/mg protein
Vmax ([11]; 60 ml culture): 1.5 U/mg protein
